Laboratory results: patent US12310973B2, “Administration and dosage of diaminophenothiazines” (WisTa Laboratories Ltd., priority 2016, dated 2025)

Tests used:
[1] = test system: mild to moderate AD patients; experiment: Phase 3 trial in mild to moderate AD: MRI volumetry (LVV, TPV, HV); format: in vivo, human; details: for HV, Estimate (difference vs control) / LVV, Estimate (difference vs control) / TPV, Estimate (difference vs control): Table 5
From the text: The co-primary efficacy outcomes were change from baseline in 11-item Alzheimer's Disease Assessment Scale—cognitive subscale (ADAS-cog) and the 23-item Alzheimer's Disease Cooperative Study Activities of Daily Living (ADCS-ADL). Magnetic resonance imaging (MRI) volumetry was chosen as the principal secondary outcome to support a potential effect on the rate of brain atrophy (Fox et al., 1997; Ridha et al., 2008). Change in Lateral Ventricular Volume (LVV), as measured by the Ventricular Boundary Shift Integral (VBSI), (Salloway et al., 2014) was chosen as the principal measure as it provides high-contrast boundaries for measurement and is less affected by motion artefacts than whole brain or smaller structures. Key supportive topographical measures (temporo-parietal (TPV) and hippocampal volume (HV)) are also reported.
ADAS-cog and ADCS-ADL assessments were performed at baseline and every 13 weeks thereafter, with change at 65 weeks (the final on-treatment visit) the primary efficacy measures. These were repeated at the final off-treatment follow-up visit at Week 69. Secondary efficacy measures included Clinical Global Impression of Change (ADCS-CGIC, administered by an independent rater); MMSE, administered on screening and at Weeks 26, 52, 65 and 69. Brain MRI scans were performed at baseline/screening and every 13 weeks using a standardized protocol including volumetric 3D T1-weighted data consistent with ADNI recommendations, FLAIR, T2* Gradient Echo and T2-weighted sequences. Diffusion-Weighted Imaging was also available at screening in order to exclude patients with co-existing pathology that would lead to a diagnosis other than probable AD. Each site was first qualified ensuring standardised acquisition protocol, patient handling and data management. MRI data were centrally collected by Imaging Corelab (Bioclinica). Data were centrally reviewed by RadMD for eligibility and safety (Amyloid Related Imaging Abnormalities, or ARIA monitoring) on an on-going basis. Volumetric 3DT1 data were also reviewed centrally in order to measure (using a boundary shift integral (BSI) technique; Salloway et al., 2014) change in LVV as principal secondary outcome measure, and as exploratory endpoints temporo-parietal volume (TPV), whole brain volume (WBV) and hippocampal volume (HV, estimated as the mean of left and right) (Wischik et al., 2016). Additional exploratory endpoints included change in glucose uptake in the temporal lobe, assessed using ^18F-fluorodeoxyglucose positron emission tomography (FDG-PET) performed during screening and at Weeks 39 and 65 in a subset of patients in sites with this imaging capability. Changes in cerebrospinal fluid biomarkers of Alzheimer's disease, including total tau, phospho-tau and amyloid-β1-42, were explored using cerebrospinal fluid samples that were collected at baseline and Week 65 (or early termination visit). Lumbar punctures were performed only in subjects who were themselves able to provide consent specifically for this procedure.
The primary efficacy analyses of change from baseline in ADAS-cog and ADCS-ADL scores were conducted in the modified intent-to-treat (mITT) population (all randomised patients who took at least one dose of study treatment and had at least one post-baseline, on-treatment efficacy assessment). The primary analysis was specified as a mixed model repeated-measures (MMRM) analysis with an unstructured covariance matrix and no imputation for missing data. The model included categorical visit (5 levels corresponding to assessments at weeks 13, 26, 39, 52 and 65), treatment (3 levels corresponding to control, 75 mg b.i.d. and 125 mg b.i.d.), treatment-by-visit interaction, and the stratification variables as additive terms, and baseline ADAS-cog or ADCS-ADL as a covariate. A similar exploratory analysis was specified in the Statistical Analysis Plan (SAP) with the AChEI/Mem covariate as an interaction term with treatment and as an interaction term with visit. […]

Mild AD patients = experiment: Further 18-month Phase 3 trial in mild AD; format: in vivo, human
Experimental: To examine the potential efficacy of LMTM as monotherapy in non-randomised observational cohort analyses as modified primary outcomes in an 18-months Phase 3 trial in mild AD.
Mild AD patients (n=800) were randomly assigned to 100 mg twice a day or 4 mg twice a day.
The Statistical Analysis Plan was revised in light of Example 3 (which completed earlier) prior to database lock and unblinding, to compare the 100 mg twice a day as monotherapy subgroup (n=79) versus 4 mg twice a day as randomised (n=396), and 4 mg twice a day as monotherapy (n=76) versus 4 mg twice a day as add-on therapy (n=297), with strong control of family-wise type I error.
We therefore modified the primary analyses and treatment comparisons in the study described in this Example (prior to database lock and unblinding) to investigate whether the monotherapy differences could be confirmed as observational cohort comparisons defined as primary outcomes with strong control of family-wise type I error in the second independent study. The monotherapy cohort comparisons which were of particular interest in light of the earlier study were: (A) 100 mg twice a day a monotherapy compared with the controls as originally randomised, and (B) 4 mg twice a day as monotherapy compared with the same dose as add-on to standard AD treatments.

[2] = Table 5, AChEI/Mem as interaction term, control arm (4 mg b.i.d.)
[3] = Table 6 post-hoc, control-arm subjects, 4 mg b.i.d. + AChEI/Mem
[4] = Table 6 post-hoc, 4 mg b.i.d. alone vs 4 mg b.i.d. + AChEI/Mem
[5] = Table 7, mild AD, 4 mg b.i.d. + AChEI/Mem (control-arm subjects)
[6] = Table 7, mild AD, 4 mg b.i.d. alone vs 4 mg b.i.d. + AChEI/Mem
[7] = Table 7, mild AD, 75 mg b.i.d. alone vs control arm as randomised
[8] = Table 7, mild AD, 125 mg b.i.d. alone vs control arm as randomised
[9] = Table 7, mild AD, control arm as randomised (4 mg b.i.d.)
[10] = Table 7, moderate AD, 4 mg b.i.d. + AChEI/Mem (control-arm subjects)
[11] = Table 7, moderate AD, 4 mg b.i.d. alone vs 4 mg b.i.d. + AChEI/Mem
[12] = Table 7, moderate AD, 75 mg b.i.d. alone vs control arm as randomised
[13] = Table 7, moderate AD, 125 mg b.i.d. alone vs control arm as randomised
[14] = Table 7, moderate AD, control arm as randomised (4 mg b.i.d.)

## CN(C)c1ccc2c(c1)Sc1cc(N(C)C)ccc1N2 [LMTM, leuco-methythioninium bis(hydromethanesulfonate)]
[1]; 75 mg b.i.d. monotherapy
  Increase in TPV relative to control: 31%±8%
  Reduction in LVV (progression of atrophy) relative to control: 38%±9%
  HV, Estimate (difference vs control): 9.5 mm^3
  LVV, Estimate (difference vs control): −2,707 mm^3
  TPV, Estimate (difference vs control): 472 mm^3
[1]; 125 mg b.i.d. monotherapy
  Increase in TPV relative to control: 26%±8%
  Reduction in LVV (progression of atrophy) relative to control: 33%±9%
  HV, Estimate (difference vs control): 20.0 mm^3
  LVV, Estimate (difference vs control): −2,347 mm^3
  TPV, Estimate (difference vs control): 405 mm^3
[1]; [2]
  HV, Estimate (change from baseline): −115.3 mm^3
  LVV, Estimate (change from baseline): 7,187 mm^3
  TPV, Estimate (change from baseline): −1529 mm^3
[1]; 75 mg b.i.d. + AChEI/Mem
  HV, Estimate (difference vs control): −2.0 mm^3
  LVV, Estimate (difference vs control): −273 mm^3
  TPV, Estimate (difference vs control): −39 mm^3
[1]; 125 mg b.i.d. + AChEI/Mem
  HV, Estimate (difference vs control): −7.4 mm^3
  LVV, Estimate (difference vs control): −306 mm^3
  TPV, Estimate (difference vs control): −12 mm^3
[1]; [3]
  HV, Estimate (change from baseline): −117.8 mm^3
  LVV, Estimate (change from baseline): 7,426 mm^3
  TPV, Estimate (change from baseline): −1,596 mm^3
[1]; [4]
  HV, Estimate (difference): 19.5 mm^3
  LVV, Estimate (difference): −1,894 mm^3
  TPV, Estimate (difference): 534 mm^3
[1]; [5]
  HV, Estimate (change from baseline): −119.5 mm^3
  LVV, Estimate (change from baseline): 6,167 mm^3
  TPV, Estimate (change from baseline): −1,398 mm^3
[1]; [6]
  HV, Estimate (difference): 46.7 mm^3
  LVV, Estimate (difference): −2,655 mm^3
  TPV, Estimate (difference): 722 mm^3
[1]; [7]
  HV, Estimate (difference): 16.9 mm^3
  LVV, Estimate (difference): −2,549 mm^3
  TPV, Estimate (difference): 392 mm^3
[1]; [8]
  HV, Estimate (difference): 40.5 mm^3
  LVV, Estimate (difference): −2,695 mm^3
  TPV, Estimate (difference): 439 mm^3
[1]; [9]
  HV, Estimate (change from baseline): −115.8 mm^3
  LVV, Estimate (change from baseline): 5,789 mm^3
  TPV, Estimate (change from baseline): −1,309 mm^3
[1]; [10]
  HV, Estimate (change from baseline): −116.6 mm^3
  LVV, Estimate (change from baseline): 8,143 mm^3
  TPV, Estimate (change from baseline): −1,697 mm^3
[1]; [11]
  HV, Estimate (difference): −2.4 mm^3
  LVV, Estimate (difference): −940 mm^3
  TPV, Estimate (difference): 370 mm^3
[1]; [12]
  HV, Estimate (difference): 3.6 mm^3
  LVV, Estimate (difference): −2,251 mm^3
  TPV, Estimate (difference): 469 mm^3
[1]; [13]
  HV, Estimate (difference): 2.2 mm^3
  LVV, Estimate (difference): −1,703 mm^3
  TPV, Estimate (difference): 293 mm^3
[1]; [14]
  HV, Estimate (change from baseline): −116.9 mm^3
  LVV, Estimate (change from baseline): 8,023 mm^3
  TPV, Estimate (change from baseline): −1,649 mm^3
[1]; mild patients, LMTM monotherapy
  Hippocampus volume benefit (increase): 35.5 mm^3
Mild AD patients; 4 mg twice a day
  Withdrawal rate over 18 months: 25%
Mild AD patients; 100 mg twice a day
  Withdrawal rate over 18 months: 46%
Mild AD patients; 100 mg twice a day monotherapy vs 4 mg twice a day as randomised, 4 mg twice a day monotherapy vs add-on, 18 months
  Revised analyses on ADAS-cog, ADCS-ADL, MRI atrophy and glucose uptake: statistically significant at the required threshold of p<0.025
Mild AD patients; after LMTM as monotherapy for 9 months, within-cohort comparison
  Annualised rate of whole brain atrophy: the rate was reduced to that reported for normal elderly controls
